Consider 12 compounds from paper PMC5618414, “FVIIa-sTF and Thrombin Inhibitory Activities of Compounds Isolated from Microcystis aeruginosa K-139” (Marine Drugs, 2017).

Where “and” joins values, the source holds several entries; their conditions need not be identical. Identical values can stand only once. Like-named read-outs stand apart in the source and are kept apart here. Where only a bound is given, the exact number is not on record here.

One assay deals with fVIIa-sTF (Homo sapiens, UniProt P08709). Briefly: fVIIa-sTF inhibitory assay. The class given is biochemical. The following applies: for EC50: 95% confidence using GraphPad Prism 7; for Thrombin/FVIIa-sTF EC50 Ratio: thrombin EC50 divided by fVIIa-sTF EC50. How it is done:
The compounds isolated from M. aeruginosa K139 were subjected to fVIIa-sTF and thrombin assays at 10 μg/mL and 100 μg/mL. […] Our microviridin B was isolated from the strain of M. aeruginosa K139. […] We used ethanol or water as negative controls.
The fVIIa-sTF and thrombin assays have been previously described in previous papers. […] A 1 mg/mL EtOH solution was prepared and independently diluted to make 750, 500, 250, 100, 75, 50, 25, 10, 5.0, 2.5, and 1.0 μg/mL. The same experimental procedure was done in all fVIIa-sTF and thrombin assays as previously described. A 20-μL solution was added in each well, in replicate, to make a final concentration of 100, 75, 50, 250, 100, 75, 50, 25, 10, 5.0, 2.5, and 1.0 μg/mL.

Assay [1] concerns the target T1, thrombin (Homo sapiens, UniProt P00734).
T1 construct: subjected to fVIIa-sTF and thrombin assays
Briefly: thrombin inhibitory assay. The format is biochemical. Particulars: for thrombin inhibition (in words): at 10 μg/mL and 100 μg/mL (low and high doses). Here is the method:
The compounds isolated from M. aeruginosa K139 were subjected to fVIIa-sTF and thrombin assays at 10 μg/mL and 100 μg/mL. […] The micropeptin K139 gave a favorable fVIIa-sTF activity at 10 μg/mL and 100 μg/mL with inhibitory activity greater than 50% and 85%, respectively. […] The EC50 of each compound was computed by GraphPad Prism 7 [34], with 95% confidence. […] A difference in activity for the same compound may be attributed to the different cyanobacterial strains used in the study. Our microviridin B was isolated from the strain of M. aeruginosa K139. Okino’s group isolated the compound from the NIES-102 cyanobacterial strain. […]. […] We used ethanol or water as negative controls.
The fVIIa-sTF and thrombin assays have been previously described in previous papers. The half maximal effective concentration (EC50) compounds isolated from M. aeruginosa K139 was done in three plates, with two replicates in each of plate. A 1 mg/mL EtOH solution was prepared and independently diluted to make 750, 500, 250, 100, 75, 50, 25, 10, 5.0, 2.5, and 1.0 μg/mL. The same experimental procedure was done in all fVIIa-sTF and thrombin assays as previously described. A 20-μL solution was added in each well, in replicate, to make a final concentration of 100, 75, 50, 250, 100, 75, 50, 25, 10, 5.0, 2.5, and 1.0 μg/mL. The EC50 was calculated from GraphPad Prism 7^© [34], with 95% confidence.

For assay [2], the target named is T1, thrombin. Particulars: literature, cited from earlier work.
Another assay deals with chymotrypsin. On the set-up: method as in PMID 19260658. Particulars: literature; cited from earlier work.
[3] abbreviates: 95% confidence using GraphPad Prism 7, read-out: Thrombin: EC50.

fVIIa-sTF, sequence (P08709 61-212 limits assumed): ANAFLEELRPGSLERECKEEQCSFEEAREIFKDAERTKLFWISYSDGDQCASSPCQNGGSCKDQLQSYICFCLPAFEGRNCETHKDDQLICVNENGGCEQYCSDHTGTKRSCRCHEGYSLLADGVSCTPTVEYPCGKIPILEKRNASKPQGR
fVIIa-sTF, sequence (P08709 213-466 limits assumed): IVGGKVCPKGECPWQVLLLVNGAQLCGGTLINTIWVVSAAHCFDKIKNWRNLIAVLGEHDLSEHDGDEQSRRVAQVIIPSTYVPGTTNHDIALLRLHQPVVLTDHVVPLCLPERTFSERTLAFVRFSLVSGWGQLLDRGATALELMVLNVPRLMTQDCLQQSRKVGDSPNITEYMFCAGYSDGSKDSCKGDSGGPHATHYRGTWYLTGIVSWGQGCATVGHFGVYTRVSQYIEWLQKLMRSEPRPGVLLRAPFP
fVIIa-sTF, sequence (P13726 33-251 partner limits assumed): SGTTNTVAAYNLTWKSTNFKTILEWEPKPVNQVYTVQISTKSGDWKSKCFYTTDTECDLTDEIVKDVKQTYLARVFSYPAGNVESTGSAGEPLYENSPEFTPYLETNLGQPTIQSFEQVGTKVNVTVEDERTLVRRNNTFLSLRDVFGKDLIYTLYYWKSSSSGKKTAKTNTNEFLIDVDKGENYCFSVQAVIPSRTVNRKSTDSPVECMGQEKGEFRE

As to `CC[C@H](C)[C@@H]1NC(=O)[C@H](Cc2ccc(O)cc2)N(C)C(=O)[C@H](CC(C)C)N2C(=O)[C@H](CC[C@H]2O)NC(=O)[C@H](Cc2ccc(O)cc2)NC(=O)[C@@H](NC(=O)[C@H](CCC(N)=O)NC(=O)[C@H](O)Cc2ccc(O)cc2)[C@@H](C)OC1=O` [917S-A], on fVIIa-sTF (at 100 μg/mL), the “fVIIa-sTF inhibitory activity (in words)” value is “negative inhibitory activity”.
On the same count and under the same terms, in the case of `CCC(C)C1NC(=O)C(Cc2ccc(O)cc2)N(C)C(=O)C(CC(C)C)N2C(=O)C(CCC2O)NC(=O)C(CC2C=CC(O)CC2)NC(=O)C(NC(=O)C(CCC(N)=O)NC(=O)C(O)Cc2ccc(O)cc2)C(C)OC1=O` (stereo not drawn) [917S-B] it was “negative inhibitory activity”; in that of `CC[C@H](C)[C@@H]1NC(=O)[C@H](Cc2ccc(O)cc2)N(C)C(=O)[C@H](CC(C)C)N2C(=O)[C@H](CC[C@H]2O)NC(=O)[C@H](CC(C)C)NC(=O)[C@@H](NC(=O)[C@H](CCC(N)=O)NC(=O)[C@H](O)Cc2ccc(O)cc2)[C@@H](C)OC1=O` [917S-C], “negative inhibitory activity”.
As usually defined, the EC50 is the midpoint of the concentration-response curve. On to `N=C(N)c1ccc(CS(=O)(=O)F)cc1` [APMSF, 4-amidinophenylmethanesulfonylfluoride], for which the EC50 on thrombin [1] worked out at 2.1 µM.
Take `CC(C)CC(NC(=O)C(O)Cc1ccc(O)cc1)C(=O)N1C(C(=O)NC2CCCN(C(=N)N)C2O)CC2CCC(O)CC21` [Aeruginosin K139, L-Hpla-L-Leu-L-Choi-L-Argal]: at fVIIa-sTF, the half-maximal effective concentration (EC50) is 166 µM and ~166 µM; the “Thrombin/FVIIa-sTF EC50 Ratio” value came to 0.004. In addition, the “fVIIa-sTF inhibitory activity (in words)” value at fVIIa-sTF (at 100 μg/mL) is listed as “active”. Also, on thrombin [1] (setting [3]), the EC50 was determined as 0.66 µM. In addition, the “thrombin inhibition (in words)” value on thrombin [1] was “inhibited thrombin”.
Turning to `CC(=O)N[C@@H](CC(C)C)C(=O)N[C@@H](CC(C)C)C(=O)N[C@H](C=O)CCCNC(=N)N` [Leupeptin], at fVIIa-sTF, the response was half-maximal at 14 µM (EC50) and the “Thrombin/FVIIa-sTF EC50 Ratio” value is recorded as 1.31. The 50% effective concentration (EC50) on thrombin [1] (setting [3]) is 18.3 µM.
By inhibition is commonly meant the percentage by which the read-out fell short of the control. A higher inhibition goes with a strong effect. For the compound `CCCCCC(=O)N[C@@H](CC(=O)O)C(=O)N[C@@H]1C(=O)N[C@@H](CCCNC(=N)N)C(=O)N[C@H]2CC[C@@H](O)N(C2=O)[C@@H]([C@@H](C)CC)C(=O)N(C)[C@@H](Cc2ccc(O)cc2)C(=O)N[C@@H]([C@@H](C)CC)C(=O)O[C@@H]1C` [Micropeptin K139], the results for the EC50 on fVIIa-sTF and at thrombin [1] (setting [3]) were 10.6 µM and 26.9 µM, respectively. This compound registered an inhibition at 10 µg/mL against fVIIa-sTF (at 10 μg/mL) above 50%. On fVIIa-sTF (at 100 μg/mL), this compound returned an inhibition at 100 µg/mL above 85%. In addition, the results for the “Thrombin/FVIIa-sTF EC50 Ratio” value on fVIIa-sTF and on fVIIa-sTF (listed as micropeptin K139) were 2.54 and “greater than one”, respectively. At thrombin [1], the “thrombin inhibition (in words)” value is “inhibited thrombin”.
`CCCCCCCC(=O)N[C@@H](CCC(=O)O)C(=O)N[C@@H]1C(=O)N[C@@H](CCCCN)C(=O)N[C@H]2CC[C@@H](O)N(C2=O)[C@@H](CC(C)C)C(=O)N(C)[C@@H](Cc2ccc(O)cc2)C(=O)N[C@@H](C(C)C)C(=O)O[C@@H]1C` [micropeptin A]: the “thrombin inhibitory assay (in words)” value on thrombin [2] is “inactive”; at thrombin [2] (listed as Micropeptin A) it was “does not inhibit thrombin”.
Take `CCCCCC(=O)N[C@@H](CCC(=O)O)C(=O)N[C@@H]1C(=O)N[C@@H](Cc2ccc(O)cc2)C(=O)N[C@H]2CC[C@@H](O)N(C2=O)[C@@H](Cc2ccccc2)C(=O)N(C)[C@@H](Cc2ccc(O)cc2)C(=O)N[C@@H](C(C)C)C(=O)O[C@@H]1C` [micropeptin C]: the “chymotrypsin EC50” value in the assay on chymotrypsin is 1.1 µg/mL.
On to `CCCCCCCC(=O)N[C@@H](CCC(=O)O)C(=O)N[C@@H]1C(=O)N[C@@H](Cc2ccc(O)cc2)C(=O)N[C@H]2CC[C@@H](O)N(C2=O)[C@@H](Cc2ccccc2)C(=O)N(C)[C@@H](Cc2ccc(O)cc2)C(=O)N[C@@H](C(C)C)C(=O)O[C@@H]1C` [micropeptin D], for which the “chymotrypsin EC50” value with chymotrypsin is 1.2 µg/mL.
As to `CCCCCC(=O)N[C@@H](CCC(=O)O)C(=O)N[C@@H]1C(=O)N[C@@H](Cc2ccc(O)cc2)C(=O)N[C@H]2CC[C@@H](O)N(C2=O)[C@@H](CC(C)C)C(=O)N(C)[C@@H](Cc2ccc(O)cc2)C(=O)N[C@@H](C(C)C)C(=O)O[C@@H]1C` [micropeptin E], in the assay with chymotrypsin, the “chymotrypsin EC50” value was 1.0 µg/mL.
For the compound `CCCCCCCC(=O)N[C@@H](CCC(=O)O)C(=O)N[C@@H]1C(=O)N[C@@H](Cc2ccc(O)cc2)C(=O)N[C@H]2CC[C@@H](O)N(C2=O)[C@@H](CC(C)C)C(=O)N(C)[C@@H](Cc2ccc(O)cc2)C(=O)N[C@@H](C(C)C)C(=O)O[C@@H]1C` [micropeptin F], in the assay on chymotrypsin, the “chymotrypsin EC50” value is 1.5 µg/mL.
